For orientation: EC50 means the concentration that produces a half-maximal response.

Consider 15 compounds from patent US20240270821A1, “GIP/GLP1/GCG TRI-RECEPTOR AGONISTS AND USES THEREOF” (priority 2023, published 2024).

Holding throughout (type): cell-based
Assay [1] concerns the target T1, hGIPR (Homo sapiens, UniProt P48546).
T1 sequence (P48546 22-466): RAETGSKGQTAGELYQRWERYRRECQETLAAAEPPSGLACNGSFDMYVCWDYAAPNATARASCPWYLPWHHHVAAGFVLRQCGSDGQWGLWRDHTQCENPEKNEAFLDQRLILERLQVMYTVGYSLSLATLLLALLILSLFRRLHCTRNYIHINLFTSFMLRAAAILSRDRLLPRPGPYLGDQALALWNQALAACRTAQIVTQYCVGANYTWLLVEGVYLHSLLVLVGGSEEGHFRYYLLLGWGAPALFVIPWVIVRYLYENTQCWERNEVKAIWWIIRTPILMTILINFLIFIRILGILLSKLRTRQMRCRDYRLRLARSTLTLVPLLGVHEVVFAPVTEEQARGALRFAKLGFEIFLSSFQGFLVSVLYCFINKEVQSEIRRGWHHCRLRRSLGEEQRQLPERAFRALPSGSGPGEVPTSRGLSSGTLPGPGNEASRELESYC
Kind of assay: Functional cAMP activation in the presence of 0.1% casein (no HSA). Conditions: read-out: Relative cAMP EC50, hGIPR.

The target of assay [2] is T1, hGIPR. Kind of assay: Functional cAMP activity in the presence of 1% HSA. Conditions: read-out: cAMP Rel EC50, hGIPR.
Assay [3] deals with hGcgR (Homo sapiens, UniProt P47871). Kind of assay: Functional cAMP activation in the presence of 0.1% casein (no HSA). Conditions: read-out: Relative cAMP EC50, hGcgR.
hGcgR, sequence (P47871 26-477): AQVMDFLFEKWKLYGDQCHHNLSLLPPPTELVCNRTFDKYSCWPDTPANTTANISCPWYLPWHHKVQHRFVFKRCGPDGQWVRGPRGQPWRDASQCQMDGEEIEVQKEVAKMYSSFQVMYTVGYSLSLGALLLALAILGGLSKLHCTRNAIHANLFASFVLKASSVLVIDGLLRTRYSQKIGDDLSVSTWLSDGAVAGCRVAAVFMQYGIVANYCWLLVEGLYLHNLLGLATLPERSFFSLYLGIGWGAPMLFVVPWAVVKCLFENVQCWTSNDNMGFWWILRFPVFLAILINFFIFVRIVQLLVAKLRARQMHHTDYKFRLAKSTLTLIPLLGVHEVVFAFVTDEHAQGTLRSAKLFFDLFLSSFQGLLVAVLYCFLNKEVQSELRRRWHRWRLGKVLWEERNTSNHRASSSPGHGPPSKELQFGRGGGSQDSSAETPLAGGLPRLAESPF
Method: After a 30-minute incubation at 37° C., the resulting increase in intracellular cAMP is quantitatively determined using the CisBio CAMP Dynamic 2 HTRF Assay Kit (62AM4PEJ). Briefly, cAMP levels within the cell are detected by adding the cAMP-d2 conjugate in cell lysis buffer followed by the antibody anti-cAMP-Eu^3+-Cryptate, also in cell lysis buffer.
Intracellular cAMP levels are determined by extrapolation using a standard curve. Dose response curves of compounds are plotted as the percentage of stimulation normalized to minimum (buffer only) and maximum (maximum concentration of each control ligand) values and analyzed using a four parameter non-linear regression fit with a variable slope (Genedata Screener 13). EC50 is the concentration of compound causing half-maximal simulation in a dose response curve. Each relative EC50 value for the Geometric mean calculation is determined from a curve fitting.
Assay [4] deals with T2, hGLP-1R (Homo sapiens, UniProt P43220). Described as above. Particulars: read-out: Relative cAMP EC50, hGLP-1R.
T2 sequence (P43220 24-463): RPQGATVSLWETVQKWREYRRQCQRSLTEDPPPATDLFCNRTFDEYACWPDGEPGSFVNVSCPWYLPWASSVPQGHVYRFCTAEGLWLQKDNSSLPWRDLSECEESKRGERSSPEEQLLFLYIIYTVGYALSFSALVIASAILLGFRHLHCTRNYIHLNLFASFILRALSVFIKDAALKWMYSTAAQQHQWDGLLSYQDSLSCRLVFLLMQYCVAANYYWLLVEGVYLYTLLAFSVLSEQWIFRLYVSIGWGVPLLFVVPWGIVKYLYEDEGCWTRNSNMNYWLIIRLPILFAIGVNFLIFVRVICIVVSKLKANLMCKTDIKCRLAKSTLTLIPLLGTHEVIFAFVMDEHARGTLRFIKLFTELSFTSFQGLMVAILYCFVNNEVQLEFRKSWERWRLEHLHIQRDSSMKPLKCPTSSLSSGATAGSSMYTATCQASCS
Assay [5] has as its target T2, hGLP-1R. Kind of assay: Functional cAMP activity in the presence of 1% HSA. Particulars: read-out: cAMP Rel EC50, hGLP-1R.
Assay [6] concerns the target human GcgR (Homo sapiens, UniProt P47871). Kind of assay: Functional cAMP activity in the presence of 1% HSA. Conditions: read-out: cAMP Rel EC50, hGcgR.
[7] abbreviates: in the presence of 0.1% casein (no HSA), geometric mean.
Setting [8] is: 0.1% casein, no HSA, geometric mean.
Setting [9] is: HEK-293 clonal cell line, in the presence of 1% HSA, geometric mean of relative EC50.
Setting [10] is: in the presence of 0.1% casein (no HSA), geometric mean of relative EC50.
The mark [11] stands for this setting: HEK-293 clonal cell line, 1% HSA, geometric mean of relative EC50.

Read-outs that look alike come from different tables or passages of the source. Starred links: 1 amine or outer side, 2 acyl side, 3 side chain; linkers in the order of their positions; H or OH if unused. Non-standard residues stand in square brackets, D forms with d. Residues, ends and D or L forms follow the SMILES beside them. Groups on a side chain read outwards from the residue. No end group written: not given here. *: point of attachment. C20 diacid = O=C(O)CCCCCCCCCCCCCCCCCCC(=O)*; C18 diacid = O=C(O)CCCCCCCCCCCCCCCCC(=O)*; αMePhe(2-F) = C[C@](N)(Cc1ccccc1F)C(=O)O; γGlu = O=C(O)[C@H](CCC(=O)[*:2])N[*:1]; αMe4Pal = C[C@](N)(Cc1ccncc1)C(=O)O; αMeY = C[C@](N)(Cc1ccc(O)cc1)C(=O)O; 4Pal = N[C@@H](Cc1ccncc1)C(=O)O; αMeL = CC(C)C[C@](C)(N)C(=O)O; αMeS = C[C@](N)(CO)C(=O)O; Orn = NCCC[C@H](N)C(=O)O; AEEA = NCCOCCOCC(=O)O; Aib = CC(C)(N)C(=O)O
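Wherever Relative cAMP EC50, hGIPR is given: intracellular cAMP rise after 30 min at 37 °C read by HTRF against a standard curve, scaled between buffer alone (0%) and top control ligand concentration (100%), four-parameter fit.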
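Wherever Relative cAMP EC50, hGLP-1R is given: intracellular cAMP rise after 30 min at 37 °C read by HTRF, normalized between buffer only (0%) and maximal control ligand (100%), four-parameter variable-slope fit.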
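Wherever Relative cAMP EC50, hGcgR is given: intracellular cAMP rise after 30 min at 37 °C, read by HTRF against a cAMP standard curve, scaled from buffer only (0%) to maximal control ligand response (100%).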

human GcgR, sequence (P47871 26-477): as the sequence (P47871 26-477) above

On to “H-Y[Aib]QGTFTSD[4Pal]SQ[αMeL]LD[Orn]K([AEEA-γGlu-C18 diacid])AQ[αMe4Pal]AFIE[αMeY]LIA[Aib]GPSSGEPPPSGSEE-NH2 [Example 1099]”, for which the EC50 in assay [1] (setting [7]) came to 0.076 nM; in assay [2], 8.64 nM; in assay [3] (setting [7]), 3.47 nM; in assay [4] (setting [7]), 0.73 nM; in assay [5], 75.8 nM; in assay [6] it was 472 nM.
With “H-Y[Aib]QGT[αMePhe(2-F)]TSD[4Pal][αMeS]ILLD[Orn]K([γGlu-γGlu-C18 diacid])AQ[Aib][Orn]FI[dE]YLIEGGPSSGEPPPSGTE-NH2 [Example 531]”, the EC50 was found to be 0.0694 nM in assay [1]; 5.2 nM in assay [2]; 3.79 nM in assay [3]; 0.356 nM in assay [4]; 37.8 nM in assay [5]; 465 nM in assay [6].
Regarding “H-Y[Aib]QGTFTSDFS[Orn][αMeL]LDKK([AEEA-γGlu-C20 diacid])AQ[Aib]AFIEYLLAGGPSSGAPPPSGD-NH2 [Example 81]”, the concentration for a half-maximal effect (EC50) in assay [1] (setting [7]) was found to be 0.246 nM; in assay [2] it was 50.2 nM; in assay [3] (setting [7]), 7.78 nM; in assay [4] (setting [7]), 2.19 nM; in assay [5], 430 nM; in assay [6] it was 1580 nM.
In the case of “H-Y[Aib]QGT[αMePhe(2-F)]TSD[4Pal][αMeS]I[αMeL]LD[Orn]K([γGlu-γGlu-C18 diacid])AQ[Aib][Orn]FI[dE][αMeY]LSEGGPSSGEPPPSGTEE-NH2 [Example 561]”, the EC50 in assay [1] stood at 0.212 nM; in assay [2] it was 10.1 nM; in assay [3], 5.43 nM; in assay [4], 1.13 nM; in assay [5] it was 76.1 nM; in assay [6], 544 nM.
In the case of “H-Y[Aib]QGT[αMePhe(2-F)]TSD[4Pal][αMeS]I[αMeL]LD[Orn]K([AEEA-AEEA-γGlu-C18 diacid])AQ[Aib][Orn]FIEYLIEGGPSSGAPEPSEG-NH2 [Example 492]”, the EC50 in assay [1] was 0.0119 nM; in assay [2], 0.84 nM; in assay [3] it was 1.35 nM; in assay [4], 0.146 nM; in assay [5], 9.85 nM; in assay [6] it was 128 nM.
On to “H-Y[Aib]QGT[αMePhe(2-F)]TSD[4Pal][αMeS]I[αMeL]LD[Orn]K([γGlu-γGlu-C18 diacid])AQ[αMe4Pal]EFI[dE][αMeY]LIEGGPPS[Aib][Orn]PPP[Orn]SE-NH2 [Example 1228]”, for which the EC50 in assay [1] (setting [8]) was found to be 0.0067 nM; in assay [2], 0.522 nM; in assay [3] (setting [8]) it was 1.98 nM; in assay [4] (setting [8]), 0.379 nM; in assay [5], 39.1 nM; in assay [6] it was 185 nM.
Turning to “H-Y[Aib]QGTFTSDFS[Orn][αMeL]LD[Orn]K([γGlu-γGlu-C18 diacid])AQ[Aib]AFIE[αMeY]LLEGGPSSGAPPPGGSEE-NH2 [Example 1049]”, the concentration for a half-maximal effect (EC50) is 0.24 nM in assay [1] (setting [7]); 56.2 nM in assay [2] (setting [9]); 6.33 nM in assay [3] (setting [7]); 2.23 nM in assay [4] (setting [7]); 780 nM in assay [5] (setting [9]); 1280 nM in assay [6] (setting [9]).
On to “Y[Aib]QGTFTSD[4Pal]SQ[αMeL]LDKK([γGlu-γGlu-C18 diacid])AQ[αMe4Pal]AFIEYLIE[Aib]GPSSGAPPPSGS-NH2 [Example 858]”, for which the EC50 in assay [1] (setting [7]) turned out to be 0.0995 nM; in assay [2], 13.1 nM; in assay [3] (setting [7]), 3.44 nM; in assay [4] (setting [7]), 1.83 nM; in assay [5] it was 258 nM; in assay [6], 678 nM.
Regarding “H-Y[Aib]QGT[αMePhe(2-F)]TSD[4Pal]SI[αMeL]LDKK([γGlu-γGlu-C18 diacid])AQ[Aib][Orn]FIEYLSEGGPSSGEPPPSGSEE-NH2 [Example 637]”, the half-maximal effective concentration (EC50) was 0.108 nM in assay [1] (setting [10]); 7.23 nM in assay [2] (setting [11]); 11.7 nM in assay [3] (setting [10]); 1.08 nM in assay [4] (setting [10]); 76.2 nM in assay [5] (setting [11]); 968 nM in assay [6] (setting [11]).
Take “H-Y[Aib]QGT[αMePhe(2-F)]TSD[4Pal]SILLDKK([γGlu-γGlu-C18 diacid])AQ[Aib]AFIEYLEEGGPSSGAPPPSGTEE-NH2 [Example 609]”: the concentration giving a half-maximal response (EC50) in assay [1] was found to be 0.0784 nM; in assay [2], 6.19 nM; in assay [3], 6.46 nM; in assay [4], 1.07 nM; in assay [5], 121 nM; in assay [6] it was 647 nM.
In the case of “H-Y[Aib]QGTFTSD[4Pal]SQ[αMeL]LD[Orn]K([γGlu-γGlu-C18 diacid])AQ[αMe4Pal]AFIEYLIAGGPSSGEPPPSGSE-NH2 [Example 1008]”, the EC50 in assay [1] (setting [7]) stood at 0.14 nM; in assay [2] it was 15.2 nM; in assay [3] (setting [7]), 7.47 nM; in assay [4] (setting [7]), 1.09 nM; in assay [5], 126 nM; in assay [6] it was 1010 nM.
“H-Y[Aib]QGTFTSDYSK[αMeL]LDKK([AEEA-γGlu-C20 diacid])AQQAFIQWLIEGGPSSGEPPPSEG-NH2 [Example 314]”: the EC50 in assay [1] (setting [7]) stood at 0.345 nM; in assay [2], 65.9 nM; in assay [3] (setting [7]), 3.7 nM; in assay [4] (setting [7]), 0.274 nM; in assay [5] it was 100 nM; in assay [6] it was 1030 nM.
In the case of `CC[C@H](C)[C@H](NC(=O)[C@H](Cc1ccccc1)NC(=O)[C@H](C)NC(=O)C(C)(C)NC(=O)[C@H](CCC(N)=O)NC(=O)[C@H](C)NC(=O)[C@H](CCCCNC(=O)CC[C@H](NC(=O)CC[C@H](NC(=O)CCCCCCCCCCCCCCCCC(=O)O)C(=O)O)C(=O)O)NC(=O)[C@H](CCCN)NC(=O)[C@H](CC(=O)O)NC(=O)[C@H](CC(C)C)NC(=O)[C@H](CC(C)C)NC(=O)[C@@H](NC(=O)[C@H](CO)NC(=O)[C@H](Cc1ccc(O)cc1)NC(=O)[C@H](CC(=O)O)NC(=O)[C@H](CO)NC(=O)[C@@H](NC(=O)[C@](C)(Cc1ccccc1F)NC(=O)[C@@H](NC(=O)CNC(=O)[C@H](CCC(N)=O)NC(=O)C(C)(C)NC(=O)[C@@H](N)Cc1ccc(O)cc1)[C@@H](C)O)[C@@H](C)O)[C@@H](C)CC)C(=O)N[C@@H](CCC(=O)O)C(=O)N[C@@H](Cc1ccc(O)cc1)C(=O)N[C@@H](CC(C)C)C(=O)N[C@@H](CCC(=O)O)C(=O)N[C@@H](CCC(=O)O)C(=O)NCC(=O)NCC(=O)N1CCC[C@H]1C(=O)N[C@@H](CO)C(=O)N[C@@H](CO)C(=O)NCC(=O)N[C@@H](C)C(=O)N1CCC[C@H]1C(=O)N1CCC[C@H]1C(=O)N1CCC[C@H]1C(=O)N[C@@H](CO)C(N)=O` [Example 414] (H-Y[Aib]QGT[αMePhe(2-F)]TSDYSILLD[Orn]K([γGlu-γGlu-C18 diacid])AQ[Aib]AFIEYLEEGGPSSGAPPPS-NH2), the EC50 in assay [1] is 0.0303 nM; in assay [2] it was 14.9 nM; in assay [3] it was 4.56 nM; in assay [4], 0.176 nM; in assay [5] it was 32.8 nM; in assay [6] it was 487 nM.
For the compound “H-Y[Aib]QGT[αMePhe(2-F)]TSD[4Pal][αMeS]I[αMeL]LD[Orn]K([AEEA-γGlu-C18 diacid])AQ[αMe4Pal]EFI[dE][αMeY]LIEGGPSSGAPPPEGGGE-NH2 [Example 759]”, the EC50 stood at 0.00676 nM in assay [1]; 1.05 nM in assay [2]; 1.29 nM in assay [3]; 0.262 nM in assay [4]; 34.8 nM in assay [5]; 223 nM in assay [6].
Consider “H-Y[Aib]QGTFTSD[4Pal]S[Orn][αMeL]LDKK([AEEA-γGlu-C18 diacid])AQ[Aib]AFIEYLLE[dA]GPSSGAPPPSG[4Pal]-NH2 [Example 274]”, for which the EC50 in assay [1] (setting [7]) was determined as 0.296 nM; in assay [2] it was 27.6 nM; in assay [3] (setting [7]), 9.37 nM; in assay [4] (setting [7]) it was 4.9 nM; in assay [5], 560 nM; in assay [6] it was 1120 nM.
